Target: Jak2 (Homo sapiens, UniProt O60674)
Type: biochemical

Jak2, sequence (O60674 whole entry): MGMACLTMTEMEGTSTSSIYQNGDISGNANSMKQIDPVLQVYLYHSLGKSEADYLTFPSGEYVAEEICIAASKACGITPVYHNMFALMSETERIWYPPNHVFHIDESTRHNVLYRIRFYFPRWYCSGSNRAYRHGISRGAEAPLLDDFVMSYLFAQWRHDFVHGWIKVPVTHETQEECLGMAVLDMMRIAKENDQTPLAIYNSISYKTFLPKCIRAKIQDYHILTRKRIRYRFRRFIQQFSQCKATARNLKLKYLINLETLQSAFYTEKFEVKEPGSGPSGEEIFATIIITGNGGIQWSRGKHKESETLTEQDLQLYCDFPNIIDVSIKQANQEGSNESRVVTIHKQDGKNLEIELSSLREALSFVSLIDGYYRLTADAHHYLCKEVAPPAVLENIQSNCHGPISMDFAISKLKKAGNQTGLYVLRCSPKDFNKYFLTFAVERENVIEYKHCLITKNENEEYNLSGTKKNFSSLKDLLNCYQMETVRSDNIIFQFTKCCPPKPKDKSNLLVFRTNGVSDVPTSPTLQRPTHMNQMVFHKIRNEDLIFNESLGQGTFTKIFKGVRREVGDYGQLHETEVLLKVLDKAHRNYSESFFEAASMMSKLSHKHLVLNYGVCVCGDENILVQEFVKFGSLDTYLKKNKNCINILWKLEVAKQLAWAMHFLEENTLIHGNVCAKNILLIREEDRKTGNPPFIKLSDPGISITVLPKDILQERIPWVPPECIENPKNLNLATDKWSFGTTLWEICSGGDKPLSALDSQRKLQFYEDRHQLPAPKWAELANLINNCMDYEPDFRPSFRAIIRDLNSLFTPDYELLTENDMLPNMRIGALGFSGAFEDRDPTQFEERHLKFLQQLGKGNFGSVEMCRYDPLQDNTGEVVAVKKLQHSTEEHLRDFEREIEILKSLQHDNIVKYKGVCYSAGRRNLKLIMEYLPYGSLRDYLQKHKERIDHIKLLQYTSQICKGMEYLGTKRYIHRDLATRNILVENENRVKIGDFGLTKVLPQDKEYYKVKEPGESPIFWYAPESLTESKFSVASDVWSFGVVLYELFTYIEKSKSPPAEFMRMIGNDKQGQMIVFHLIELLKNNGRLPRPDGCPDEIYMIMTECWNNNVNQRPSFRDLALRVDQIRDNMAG

NC(=O)Nc1sc(-c2ccc(F)cc2)cc1C(N)=O [TPCA-1, 2-[(Aminocarbonyl)amino]-5-(4-fluorophenyl)-3-thiophenecarboxamide] showed a Ki of ~9 nM.
